Results: PubChem BioAssay (NCI)
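GI50: concentration for 50% inhibition of growth. TGI denotes the concentration required for complete inhibition of growth.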

How the values were obtained:
Experiment in all cases: inhibition of tumour cell growth, NCI panel, 384-well format
SN12C renal = test system: SN12C renal
NCI/ADR-RES ovarian = test system: NCI/ADR-RES ovarian
HCT-15 colon = test system: HCT-15 colon
SK-OV-3 ovarian = test system: SK-OV-3 ovarian
SK-MEL-28 melanoma = test system: SK-MEL-28 melanoma
SF-268 CNS = test system: SF-268 CNS
IGROV1 ovarian = test system: IGROV1 ovarian
HT29 colon = test system: HT29 colon
UO-31 renal = test system: UO-31 renal
OVCAR-8 ovarian = test system: OVCAR-8 ovarian
MDA-MB-231 breast = test system: MDA-MB-231 breast
A549 NSCLC = test system: A549 NSCLC
MOLT-4 leukemia = test system: MOLT-4 leukemia
COLO 205 colon = test system: COLO 205 colon
786-0 renal = test system: 786-0 renal
SNB-19 CNS = test system: SNB-19 CNS
U251 glioblastoma = test system: U251 glioblastoma
MDA-MB-435 melanoma = test system: MDA-MB-435 melanoma
K-562 leukemia = test system: K-562 leukemia
RPMI-8226 leukemia = test system: RPMI-8226 leukemia
BT-549 breast = test system: BT-549 breast
OVCAR-3 ovarian = test system: OVCAR-3 ovarian
SK-MEL-5 melanoma = test system: SK-MEL-5 melanoma
CAKI-1 renal = test system: CAKI-1 renal
DU-145 prostate = test system: DU-145 prostate
M14 melanoma = test system: M14 melanoma
CCRF-CEM leukemia = test system: CCRF-CEM leukemia
HOP-62 NSCLC = test system: HOP-62 NSCLC
MDA-MB-468 breast = test system: MDA-MB-468 breast
HS 578T breast = test system: HS 578T breast
SNB-75 CNS = test system: SNB-75 CNS
MALME-3M melanoma = test system: MALME-3M melanoma
UACC-62 melanoma = test system: UACC-62 melanoma
LOX IMVI melanoma = test system: LOX IMVI melanoma
SF-539 CNS = test system: SF-539 CNS
SW-620 colon = test system: SW-620 colon
HCT-116 colon = test system: HCT-116 colon
SR leukemia = test system: SR leukemia
NCI-H460 NSCLC = test system: NCI-H460 NSCLC
EKVX NSCLC = test system: EKVX NSCLC
MCF7 breast = test system: MCF7 breast
T-47D breast = test system: T-47D breast
KM12 colon = test system: KM12 colon
NCI-H522 lung = test system: NCI-H522 lung
PC-3 prostate = test system: PC-3 prostate
TK-10 renal = test system: TK-10 renal
HL-60(TB) leukemia = test system: HL-60(TB) leukemia
HOP-92 NSCLC = test system: HOP-92 NSCLC
NCI-H322M lung = test system: NCI-H322M lung
RXF 393 renal = test system: RXF 393 renal
SF-295 CNS = test system: SF-295 CNS
OVCAR-4 ovarian = test system: OVCAR-4 ovarian
NCI-H23 lung = test system: NCI-H23 lung
HCC-2998 colon = test system: HCC-2998 colon
ACHN renal = test system: ACHN renal

O=C(NCc1ccc(S(=O)(=O)c2cc(F)cc(F)c2)cc1)c1ccc2nccn2c1
GI50 (SN12C renal): < 10 nM
TGI (SN12C renal): < 10 nM
GI50 (NCI/ADR-RES ovarian): < 10 nM
TGI (NCI/ADR-RES ovarian): < 10 nM
GI50 (HCT-15 colon): < 10 nM
TGI (HCT-15 colon): < 10 nM
GI50 (SK-OV-3 ovarian): < 10 nM
TGI (SK-OV-3 ovarian): < 10 nM
GI50 (SK-MEL-28 melanoma): < 10 nM
TGI (SK-MEL-28 melanoma): < 10 nM
GI50 (SF-268 CNS): < 10 nM
TGI (SF-268 CNS): < 10 nM
GI50 (IGROV1 ovarian): < 10 nM
TGI (IGROV1 ovarian): < 10 nM
GI50 (HT29 colon): < 10 nM
TGI (HT29 colon): 10.2 nM
GI50 (UO-31 renal): < 10 nM
TGI (UO-31 renal): < 10 nM
GI50 (OVCAR-8 ovarian): < 10 nM
TGI (OVCAR-8 ovarian): < 10 nM
GI50 (MDA-MB-231 breast): < 10 nM
TGI (MDA-MB-231 breast): 18.3 nM
GI50 (A549 NSCLC): < 10 nM
TGI (A549 NSCLC): 20.3 nM
GI50 (MOLT-4 leukemia): < 10 nM
TGI (MOLT-4 leukemia): < 10 nM
GI50 (COLO 205 colon): < 10 nM
TGI (COLO 205 colon): < 10 nM
GI50 ([…]-0 renal): < 10 nM
TGI (786-0 renal): < 10 nM
GI50 (SNB-19 CNS): < 10 nM
TGI (SNB-19 CNS): < 10 nM
GI50 (U251 glioblastoma): < 10 nM
TGI (U251 glioblastoma): < 10 nM
GI50 (MDA-MB-435 melanoma): < 10 nM
TGI (MDA-MB-435 melanoma): < 10 nM
GI50 (K-562 leukemia): < 10 nM
TGI (K-562 leukemia): < 10 nM
GI50 (RPMI-8226 leukemia): < 10 nM
TGI (RPMI-8226 leukemia): < 10 nM
GI50 (BT-549 breast): < 10 nM
TGI (BT-549 breast): < 10 nM
GI50 (OVCAR-3 ovarian): < 10 nM
TGI (OVCAR-3 ovarian): < 10 nM
GI50 (SK-MEL-5 melanoma): < 10 nM
TGI (SK-MEL-5 melanoma): < 10 nM
GI50 (CAKI-1 renal): < 10 nM
TGI (CAKI-1 renal): < 10 nM
GI50 (DU-145 prostate): < 10 nM
TGI (DU-145 prostate): < 10 nM
GI50 (M14 melanoma): < 10 nM
TGI (M14 melanoma): < 10 nM
GI50 (CCRF-CEM leukemia): < 10 nM
TGI (CCRF-CEM leukemia): < 10 nM
GI50 (HOP-62 NSCLC): < 10 nM
TGI (HOP-62 NSCLC): < 10 nM
GI50 (MDA-MB-468 breast): < 10 nM
TGI (MDA-MB-468 breast): < 10 nM
GI50 (HS 578T breast): < 10 nM
TGI (HS 578T breast): < 10 nM
GI50 (SNB-75 CNS): < 10 nM
TGI (SNB-75 CNS): < 10 nM
GI50 (MALME-3M melanoma): < 10 nM
TGI (MALME-3M melanoma): 27.4 nM
GI50 (UACC-62 melanoma): < 10 nM
TGI (UACC-62 melanoma): < 10 nM
GI50 (LOX IMVI melanoma): < 10 nM
TGI (LOX IMVI melanoma): 25.7 nM
GI50 (SF-539 CNS): < 10 nM
TGI (SF-539 CNS): < 10 nM
GI50 (SW-620 colon): < 10 nM
TGI (SW-620 colon): < 10 nM
GI50 (HCT-116 colon): < 10 nM
TGI (HCT-116 colon): < 10 nM
GI50 (SR leukemia): < 10 nM
TGI (SR leukemia): < 10 nM
GI50 (NCI-H460 NSCLC): 11.6 nM
TGI (NCI-H460 NSCLC): 26.3 nM
GI50 (EKVX NSCLC): < 10 nM
TGI (EKVX NSCLC): 12.4 nM
GI50 (MCF7 breast): < 10 nM
TGI (MCF7 breast): < 10 nM
GI50 (T-47D breast): < 10 nM
TGI (T-47D breast): < 10 nM
GI50 (KM12 colon): < 10 nM
TGI (KM12 colon): < 10 nM
GI50 (NCI-H522 lung): < 10 nM
TGI (NCI-H522 lung): < 10 nM
GI50 (PC-3 prostate): < 10 nM
TGI (PC-3 prostate): < 10 nM
GI50 (TK-10 renal): < 10 nM
TGI (TK-10 renal): < 10 nM
GI50 (HL-60(TB) leukemia): < 10 nM
TGI (HL-60(TB) leukemia): < 10 nM
GI50 (HOP-92 NSCLC): 20.4 nM
TGI (HOP-92 NSCLC): 43.5 nM
GI50 (NCI-H322M lung): < 10 nM
TGI (NCI-H322M lung): < 10 nM
GI50 (RXF 393 renal): < 10 nM
TGI (RXF 393 renal): < 10 nM
GI50 (SF-295 CNS): < 10 nM
TGI (SF-295 CNS): < 10 nM
GI50 (OVCAR-4 ovarian): < 10 nM
TGI (OVCAR-4 ovarian): 11.4 nM
GI50 (NCI-H23 lung): < 10 nM
TGI (NCI-H23 lung): < 10 nM
GI50 (HCC-2998 colon): < 10 nM
TGI (HCC-2998 colon): < 10 nM
GI50 (ACHN renal): < 10 nM
TGI (ACHN renal): < 10 nM
